Experimental data from patent US20110059043A1, “CHEMICAL COMPOUNDS” (priority 2009, published 2011).

Tests used:
[1] = biological target: T1, Recombinant HCV polymerase (BK strain) (Hepatitis C virus genotype 1b, UniProt P26663); assay: HCV polymerase enzyme assay (radiometric [33P]-UTP incorporation); assay type: biochemical, HCV 1b
T1 construct: Recombinant HCV polymerase (BK strain) was expressed and purified from E. coli with a 21 amino acid C-terminal deletion; His6; made in house; host or cells: E. coli
How it was run: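 His6-tagged BK-strain NS5B lacking 21 C-terminal residues, expressed in E. coli, at 100 nM in Tris pH 7.5 with 5 mM MgCl2 and 3% DMSO. Substrates: 125 nM biotin-U13:0.63 μg/ml PolyA, 200 nM UTP plus [33P]-UTP; 100 min at 25° C. Incorporation read by streptavidin capture; IC50 from 8-point curve.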

[2] = system: HCV replicon cells Huh 9B; assay: HCV replicon assay (luciferase); assay type: cell-based; conditions: Hepatitis C virus, reduction of replicon level by 50% vs untreated cell control, 72 h
[3] = system: HCV replicon cells Huh 9B; assay type: cell-based; conditions: concentration reducing total cell area by 50% relative to DMSO controls; 72 h
How it was run: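 Huh 9B replicon cells (luciferase-ubiquitin-neomycin fusion, EMCV-IRES-driven HCV polyprotein with adaptive mutations) were seeded from a 100,000 cells/ml suspension in G418-free medium, grown 24 h, then exposed to compound (dilutions at 1% DMSO) for 72 h at 37 °C. For toxicity, methylene blue staining was read at 620 nm and TD50 derived relative to DMSO controls.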

T1 sequence (P26663 2420-2989): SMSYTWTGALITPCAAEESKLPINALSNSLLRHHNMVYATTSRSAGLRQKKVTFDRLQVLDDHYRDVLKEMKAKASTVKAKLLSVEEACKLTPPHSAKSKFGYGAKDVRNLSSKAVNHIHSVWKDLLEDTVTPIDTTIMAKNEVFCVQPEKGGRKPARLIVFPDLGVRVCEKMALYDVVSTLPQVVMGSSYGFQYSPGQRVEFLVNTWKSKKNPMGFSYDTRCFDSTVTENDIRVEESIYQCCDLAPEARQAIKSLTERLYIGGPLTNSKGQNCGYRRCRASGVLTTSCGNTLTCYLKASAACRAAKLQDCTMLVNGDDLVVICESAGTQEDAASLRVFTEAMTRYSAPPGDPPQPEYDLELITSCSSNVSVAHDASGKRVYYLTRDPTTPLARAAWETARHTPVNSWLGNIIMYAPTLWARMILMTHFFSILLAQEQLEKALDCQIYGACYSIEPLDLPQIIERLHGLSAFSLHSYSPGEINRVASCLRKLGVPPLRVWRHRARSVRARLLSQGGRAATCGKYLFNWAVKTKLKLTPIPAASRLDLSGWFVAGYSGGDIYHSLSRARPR

Row | Structure (SMILES) | IC50 [1] | IC50 [2] | Replicon Assay Value TD50 [3]
1 | CCC(=O)NCCOc1ccc(Cl)cc1C(=O)NC1N=C(c2c(Cl)cc(Cl)cc2Cl)c2ccccc2NC1=O (stereo not drawn) [Example 22, 5-Chloro-N-(2-oxo-5-(2,4,6-trichlorophenyl)-2,3-dihydro-1H-benzo[e][1,4]diazepin-3-yl)-2-(2-propionamidoethoxy)benzamide] | 197 nM | 953 nM | 12.304 µM
2 | CCN(CCOC)c1ncc(F)cc1C(=O)NC1N=C(c2c(Cl)cc(Cl)cc2Cl)c2ccccc2NC1=O (stereo not drawn) [Example 43, 2-(Ethyl(2-methoxyethyl)amino)-5-fluoro-N-(2-oxo-5-(2,4,6-trichlorophenyl)-2,3-dihydro-1H-benzo[e][1,4]diazepin-3-yl)nicotinamide] | 204 nM | 787 nM | 23.97 µM
3 | CCOCCN(CC)c1ncc(F)cc1C(=O)NC1N=C(c2c(Cl)cc(Cl)cc2Cl)c2ccccc2NC1=O (stereo not drawn) [Example 45, 2-((2-Ethoxyethyl)(ethyl)amino)-5-fluoro-N-(2-oxo-5-(2,4,6-trichlorophenyl)-2,3-dihydro-1H-benzo[e][1,4]diazepin-3-yl)nicotinamide] | 176 nM | 752 nM | 18.864 µM
4 | CCOCCOCCOc1ccc(Cl)cc1C(=O)NC1N=C(c2c(Cl)cc(Cl)cc2Cl)c2ccccc2NC1=O (stereo not drawn) [Example 8, 5-Chloro-2-(2-(2-ethoxyethoxy)ethoxy)-N-(2-oxo-5-(2,4,6-trichlorophenyl)-2,3-dihydro-1H-benzo[e][1,4]diazepin-3-yl)benzamide] | 1070 nM | 1340 nM | 11.724 µM
5 | COCCOc1ccc(F)cc1C(=O)N[C@@H]1N=C(c2c(Cl)cc(Cl)cc2Cl)c2ccccc2NC1=O [Example 62, (R)-5-Fluoro-2-(2-methoxyethoxy)-N-(2-oxo-5-(2,4,6-trichlorophenyl)-2,3-dihydro-1H-benzo[e][1,4]diazepin-3-yl)benzamide] | 16800 nM | 594 nM | 24.765 µM
6 | COCCCOc1ncc(F)cc1C(=O)NC1N=C(c2c(Cl)cc(Cl)cc2Cl)c2ccccc2NC1=O (stereo not drawn) [Example 38, 5-Fluoro-2-(3-methoxypropoxy)-N-(2-oxo-5-(2,4,6-trichlorophenyl)-2,3-dihydro-1H-benzo[e][1,4]diazepin-3-yl)nicotinamide] | 79 nM | 15.7 nM | 22.269 µM
7 | CS(=O)(=O)NCCCOc1ccc(Cl)cc1C(=O)NC1N=C(c2c(Cl)cc(Cl)cc2Cl)c2ccccc2NC1=O (stereo not drawn) [Example 27, 5-Chloro-2-(3-(methylsulfonamido)propoxy)-N-(2-oxo-5-(2,4,6-trichlorophenyl)-2,3-dihydro-1H-benzo[e][1,4]diazepin-3-yl)benzamide] | 824 nM | 1910 nM | 13.62 µM
8 | COCC(C)Oc1ccc(Cl)cc1C(=O)NC1N=C(c2c(Cl)cc(Cl)cc2Cl)c2ccccc2NC1=O (stereo not drawn) [Example 4, 5-Chloro-2-(1-methoxypropan-2-yloxy)-N-(2-oxo-5-(2,4,6-trichlorophenyl)-2,3-dihydro-1H-benzo[e][1,4]diazepin-3-yl)benzamide] | 261 nM | 304 nM | >25 µM
9 | COCCN(C)c1ncc(F)cc1C(=O)NC1N=C(c2c(Cl)cc(Cl)cc2Cl)c2ccccc2NC1=O (stereo not drawn) [Example 41, 5-Fluoro-2-((2-methoxyethyl)(methyl)amino)-N-(2-oxo-5-(2,4,6-trichlorophenyl)-2,3-dihydro-1H-benzo[e][1,4]diazepin-3-yl)nicotinamide] | 129 nM | 24.7 nM | 24.146 µM
10 | COCCN(C)c1ncc(F)cc1C(=O)N[C@@H]1N=C(c2c(Cl)cc(Cl)cc2Cl)c2ccccc2NC1=O [Example 68, (R)-5-Fluoro-2-((2-methoxyethyl)(methyl)amino)-N-(2-oxo-5-(2,4,6-trichlorophenyl)-2,3-dihydro-1H-benzo[e][1,4]diazepin-3-yl)nicotinamide] | 5170 nM | 360 nM | 16.618 µM
11 | COCCOc1ncc(Br)cc1C(=O)NC1N=C(c2c(Cl)cc(Cl)cc2Cl)c2ccccc2NC1=O (stereo not drawn) [Example 33, 5-Bromo-2-(2-methoxyethoxy)-N-(2-oxo-5-(2,4,6-trichlorophenyl)-2,3-dihydro-1H-benzo[e][1,4]diazepin-3-yl)nicotinamide] | 265 nM | 487 nM | >25 µM
12 | COCCCOc1ccc(Cl)cc1C(=O)NC1N=C(c2c(Cl)cc(Cl)cc2Cl)c2ccccc2NC1=O (stereo not drawn) [Example 1, 5-chloro-2-(3-methoxypropoxy)-N-(2-oxo-5-(2,4,6-trichlorophenyl)-2,3-dihydro-1H-benzo[e][1,4]diazepin-3-yl)benzamide] | 354 nM | 210 nM | >25 µM
13 | COCCN(c1ncc(F)cc1C(=O)NC1N=C(c2c(Cl)cc(Cl)cc2Cl)c2ccccc2NC1=O)C(C)C (stereo not drawn) [Example 44, 5-Fluoro-2-(isopropyl(2-methoxyethyl)amino)-N-(2-oxo-5-(2,4,6-trichlorophenyl)-2,3-dihydro-1H-benzo[e][1,4]diazepin-3-yl)nicotinamide] | 1330 nM | 2650 nM | 23.394 µM
14 | CCOc1cc(Cl)cc(Cl)c1C1=NC(NC(=O)c2cc(F)ccc2OCCOC)C(=O)Nc2ccccc21 (stereo not drawn) [Example 56, N-(5-(2,4-Dichloro-6-ethoxyphenyl)-2-oxo-2,3-dihydro-1H-benzo[e][1,4]diazepin-3-yl)-5-fluoro-2-(2-methoxyethoxy)benzamide] | 154 nM | 38.9 nM | 11.349 µM
15 | CN(C)CCOCCOc1ccc(Cl)cc1C(=O)NC1N=C(c2c(Cl)cc(Cl)cc2Cl)c2ccccc2NC1=O (stereo not drawn) [Example 13, 5-Chloro-2-(2-(2-(dimethylamino)ethoxy)ethoxy)-N-(2-oxo-5-(2,4,6-trichlorophenyl)-2,3-dihydro-1H-benzo[e][1,4]diazepin-3-yl)benzamide] | 1700 nM | 3170 nM | 6.754 µM
16 | CN(C)CCCOc1ccc(Cl)cc1C(=O)NC1N=C(c2c(Cl)cc(Cl)cc2Cl)c2ccccc2NC1=O (stereo not drawn) [Example 12, 5-Chloro-2-(3-(dimethylamino)propoxy)-N-(2-oxo-5-(2,4,6-trichlorophenyl)-2,3-dihydro-1H-benzo[e][1,4]diazepin-3-yl)benzamide] | 3130 nM | 5510 nM | 4.253 µM
17 | COCCOc1nccc(C)c1C(=O)NC1N=C(c2c(Cl)cc(Cl)cc2Cl)c2ccccc2NC1=O (stereo not drawn) [Example 40, 2-(2-Methoxyethoxy)-4-methyl-N-(2-oxo-5-(2,4,6-trichlorophenyl)-2,3-dihydro-1H-benzo[e][1,4]diazepin-3-yl)nicotinamide] | 2960 nM | 856 nM | 24.518 µM
18 | COCCOc1ccc(C(C)=O)cc1C(=O)NC1N=C(c2c(Cl)cc(Cl)cc2Cl)c2ccccc2NC1=O (stereo not drawn) [Example 18, 5-Acetyl-2-(2-methoxyethoxy)-N-(2-oxo-5-(2,4,6-trichlorophenyl)-2,3-dihydro-1H-benzo[e][1,4]diazepin-3-yl)benzamide] | 385 nM | 876 nM | 15.802 µM
19 | CO[C@@H](C)COc1ncc(F)cc1C(=O)NC1N=C(c2c(Cl)cc(Cl)cc2Cl)c2ccccc2NC1=O (stereo partly drawn) [Example 35, 5-Fluoro-2-((S)-2-methoxypropoxy)-N-(2-oxo-5-(2,4,6-trichlorophenyl)-2,3-dihydro-1H-benzo[e][1,4]diazepin-3-yl)nicotinamide] | 89.7 nM | 184 nM | 24.614 µM
20 | COCCOc1ncc(F)cc1C(=O)NC1N=C(c2c(Cl)cc(Cl)cc2Cl)c2ccccc2NC1=O (stereo not drawn) [Example 30, 5-Fluoro-2-(2-methoxyethoxy)-N-(2-oxo-5-(2,4,6-trichlorophenyl)-2,3-dihydro-1H-benzo[e][1,4]diazepin-3-yl)nicotinamide] | 116 nM | 46.4 nM | >25 µM
21 | COCCOc1ccccc1C(=O)NC1N=C(c2c(Cl)cc(Cl)cc2Cl)c2ccccc2NC1=O (stereo not drawn) [Example 15, 2-(2-Methoxyethoxy)-N-(2-oxo-5-(2,4,6-trichlorophenyl)-2,3-dihydro-1H-benzo[e][1,4]diazepin-3-yl)benzamide] | 299 nM | 110 nM | 25.845 µM
22 | CCOCCOc1ncc(F)cc1C(=O)NC1N=C(c2c(Cl)cc(Cl)cc2OC)c2ccccc2NC1=O (stereo not drawn) [Example 55, N-(5-(2,4-Dichloro-6-methoxyphenyl)-2-oxo-2,3-dihydro-1H-benzo[e][1,4]diazepin-3-yl)-2-(2-ethoxyethoxy)-5-fluoronicotinamide] | 116 nM | 27 nM | 18.821 µM
23 | CCNC(=O)NCCOc1ccc(Cl)cc1C(=O)NC1N=C(c2c(Cl)cc(Cl)cc2Cl)c2ccccc2NC1=O (stereo not drawn) [Example 24, 5-Chloro-2-(2-(3-ethylureido)ethoxy)-N-(2-oxo-5-(2,4,6-trichlorophenyl)-2,3-dihydro-1H-benzo[e][1,4]diazepin-3-yl)benzamide] | 281 nM | 1280 nM | 11.815 µM
